This note sets out measurements from US20240279233A1, “MACROCYCLIC TAK1 INHIBITORS” (Aqilion AB, priority 2021, published 2024).

The structures appear in SMILES notation.

Chain of human recombinant TAK1-TAB1 Kinase (TAK1 (1-303) and TAB1 (437-end)) (O43318 other isoform, or with tags, fused parts or gaps): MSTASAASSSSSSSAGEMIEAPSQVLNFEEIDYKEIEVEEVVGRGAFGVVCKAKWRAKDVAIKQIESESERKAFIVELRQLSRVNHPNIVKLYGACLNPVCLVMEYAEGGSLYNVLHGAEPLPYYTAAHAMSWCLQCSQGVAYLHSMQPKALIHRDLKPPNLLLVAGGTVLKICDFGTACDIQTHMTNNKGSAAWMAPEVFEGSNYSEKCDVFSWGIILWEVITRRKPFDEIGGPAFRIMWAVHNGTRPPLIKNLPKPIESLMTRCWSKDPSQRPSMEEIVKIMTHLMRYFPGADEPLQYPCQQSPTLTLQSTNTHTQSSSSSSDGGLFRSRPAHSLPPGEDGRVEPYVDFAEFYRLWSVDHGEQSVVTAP

In the first assay the target is human recombinant TAK1-TAB1 Kinase (TAK1 (1-303) and TAB1 (437-end)) (Homo sapiens (Human), UniProt O43318). Nature of the assay: TAK1 biochemical ADP-Glo kinase assay. Particulars: 10 μM ATP, MBP substrate; read-out: TAK1 Mean IC50 (nM) @ 10 μM ATP. The protocol:
The usefulness of the example compounds of the invention as TAK1 inhibitors was evaluated in a biochemical ADP-Glo kinase assay. Assay kits from Promega Corporation V4089 were used according to manufacturer's instructions and adapted as outlined here. ADP-Glo Kinase Assay kit contains ADP-Glo Reagent, Kinase Detection Reagent, kinase detection buffer, ATP, and ADP. The Kinase Enzyme Systems include human recombinant TAK1-TAB1 Kinase (TAK1 (1-303) and TAB1 (437-end)), Native Swine Myelin Basic Protein (MBP) substrate, 5×kinase reaction buffer, and DTT.
Test compounds were prepared in 1:5 serial dilutions at 8 concentrations in DMSO from 10 mM stock solutions. An additional 20-fold dilution in 1× kinase reaction buffer (see below) was performed, yielding a final dilution series in kinase buffer with 5% DMSO (final concentration in assay from 20 μM to 0.26 nM, 1% DMSO). As controls, Takinib was prepared as positive control (3 μM final in assay), and DMSO without inhibitor served as negative control, at a final assay concentration of DMSO of 1%.
One μl of compound solution in 5% DMSO was added to each well in a 384 well microtiter plate (OptiPlate #6007290). Two μl TAK1-TAB1 (7.5 ng/μl) in lxkinase reaction buffer ([…] Tris base pH 7.5, 20 mM MgCl2, 50 μM DTT, 0.1 mg/ml BSA) was added and pre-incubated 10 min before adding 2 μl of a mixture of MBP substrate and ATP (0.25 μg/μL MBP/25 μM ATP or 0.25 μg/μL MBP/2.5 mM ATP) in 1× kinase reaction buffer (as above). The plate was subsequently incubated at room temperature for 1 hour. Then 5 μl ADP-Glo™ reagent from ADP-Glo™ kit (as above) was added and incubated for 40 min to stop the reaction and consume remaining ATP. Ten μl kinase detection substrate (dissolved in kinase detection buffer, both from ADP-Glo™ kit as above) was then added to convert ADP to ATP and detect ATP with luciferase/luciferin. The plate was incubated for 30 minutes at room temperature in dark before reading luminescence on an Envision (PerkinElmer) reader.
IC50 values of compounds of the invention were determined by the non-linear regression analysis of dose response curves.
(In ADP-Glo the light output rises with the ADP produced.)
In the case of `CC1CCCCNC(=O)c2cccc(c2)C(=O)/N=C2\Nc3cccc(C(=O)N4CC(F)(F)C4)c3N21` (centres unmarked) [Example 40, (E)-1^7-(3,3-difluoroazetidine-1-carbonyl)-11-methyl-1^2,1^3-dihydro-1^1H-2,6-diaza-1(2,1)-benzo[d]imidazola-4(1,3)-benzenacycloundecaphane-3,5-dione], the IC50 was 3 nM.

Turning to `CC1CCCCNC(=O)c2cccc(c2)C(=O)/N=C2\Nc3cccc(C(=O)N(C)C4CC(O)C4)c3N21` (centres unmarked) [Example 41, (E)-N-(3-hydroxycyclobutyl)-N,11-dimethyl-3,5-dioxo-1^2,1^3-dihydro-1^1H-2,6-diaza-1(2,1)-benzo[d]imidazola-4(1,3)-benzenacycloundecaphane-1^7-carboxamide], the IC50 amounted to 3 nM.

As for `CC1CCCCNC(=O)c2cccc(c2)C(=O)/N=C2\Nc3cccc(C(=O)N4CC5(COC5)C4)c3N21` (centres unmarked) [Example 42, (E)-11-methyl-1^7-(2-oxa-6-azaspiro[3.3]heptane-6-carbonyl)-1^2,1^3-dihydro-1^1H-2,6-diaza-1(2,1)-benzo[d]imidazola-4(1,3)-benzenacycloundecaphane-3,5-dione], the IC50 came out at 7 nM.

Regarding `CC1CCCNC(=O)c2cccc(c2)C(=O)Nc2nc3cccc(C(=O)N(C)C)c3n2C1` (centres unmarked) [Example 51, (E)-N,N,10-trimethyl-3,5-dioxo-1^2,1^3-dihydro-1^1H-2,6-diaza-1(2,1)-benzo[d]imidazola-4(1,3)-benzenacycloundecaphane-1^7-carboxamide], the IC50 stood at 136 nM.

With `CC1CCCNC(=O)c2cccc(c2)C(=O)Nc2nc3cccc(C(=O)N(C)C)c3n2C1` (centres unmarked) [Example 52, (E)-N,N,10-trimethyl-3,5-dioxo-1^2,1^3-dihydro-1^1H-2,6-diaza-1(2,1)-benzo[d]imidazola-4(1,3)-benzenacycloundecaphane-1^7-carboxamide], the IC50 was 63 nM.

Consider `C[C@@H]1CCCCNC(=O)c2cccc(c2)C(=O)Nc2nc3cccc(-c4ncn(C)n4)c3n21` [Example 83, (R)-11-methyl-1^7-(1-methyl-1H-1,2,4-triazol-3-yl)-1^1H-2,6-diaza-1(2,1)-benzo[d]imidazola-4(1,3)-benzenacycloundecaphane-3,5-dione], for which the IC50 amounted to 6 nM.

With `C[C@@H]1CCCCNC(=O)c2cccc(c2)C(=O)Nc2nc3cccc(-c4ncnn4C)c3n21` [Example 85, (R,E)-11-methyl-1^7-(1-methyl-1H-1,2,4-triazol-5-yl)-1^1H-2,6-diaza-1(2,1)-benzo[d]imidazola-4(1,3)-benzenacycloundecaphane-3,5-dione], the IC50 was determined as 3 nM.

`CC1CCCCNC(=O)c2cccc(c2)C(=O)Nc2nc3cccc(-c4nccn4C(F)F)c3n21` (centres unmarked) [Example 90, (E)-1^7-(1-(difluoromethyl)-1H-imidazol-2-yl)-11-methyl-1^2,1^3-dihydro-1^1H-2,6-diaza-1(2,1)-benzo[d]imidazola-4(1,3)-benzenacycloundecaphane-3,5-dione]: the IC50 was determined as 6 nM.

For `C[C@@H]1CCCCNC(=O)c2cccc(c2)C(=O)/N=C2\Nc3cccc(C(=O)N4CC(C)(O)C4)c3N21` [Example 94, (R,E)-1^7-(3-hydroxy-3-methylazetidine-1-carbonyl)-11-methyl-1^2,1^3-dihydro-1^1H-2,6-diaza-1(2,1)-benzo[d]imidazola-4(1,3)-benzenacycloundecaphane-3,5-dione], the IC50 came out at 5 nM.

On to `C[C@H]1CCCCNC(=O)c2cccc(c2)C(=O)/N=C2\Nc3cccc(C(=O)N4CC(C)(O)C4)c3N21` [Example 95, (S,E)-1^7-(3-hydroxy-3-methylazetidine-1-carbonyl)-11-methyl-1^2,1^3-dihydro-1^1H-2,6-diaza-1(2,1)-benzo[d]imidazola-4(1,3)-benzenacycloundecaphane-3,5-dione], for which the IC50 turned out to be 6 nM.

For `Cc1nnc(-c2cccc3c2N2/C(=N/C(=O)c4cccc(c4)C(=O)NCCCC[C@@H]2C)N3)n1C` [Example 96, (S,E)-1^7-(4,5-dimethyl-4H-1,2,4-triazol-3-yl)-11-methyl-1^2,1^3-dihydro-1^1H-2,6-diaza-1(2,1)-benzo[d]imidazola-4(1,3)-benzenacycloundecaphane-3,5-dione], the IC50 stood at 11 nM.

With `CN1CCN(Cc2ccc3c(c2)N/C2=N\C(=O)c4ccc(F)c(c4)C(=O)NCCCCCN23)CC1` [Example 103, (E)-4^4-fluoro-1^5-((4-methylpiperazin-1-yl)methyl)-1^2,1^3-dihydro-1^1H-2,6-diaza-1(2,1)-benzo[d]imidazola-4(1,3)-benzenacycloundecaphane-3,5-dione], the IC50 was found to be 3 nM.

`CN1CCN(Cc2ccc3c(c2)N/C2=N\C(=O)c4csc(c4)C(=O)NCCCCCN23)CC1` [Example 104, (1^2E,4^2Z)-1^5-((4-methylpiperazin-1-yl)methyl)-1^2,1^3-dihydro-1^1H-2,6-diaza-1(2,1)-benzo[d]imidazola-4(4,2)-thiophenacycloundecaphane-3,5-dione]: the IC50 stood at 4 nM.

For the compound `CN1CCN(Cc2ccc3c(c2)N/C2=N\C(=O)c4cc(ccc4F)C(=O)NCCCCCN23)CC1` [Example 105, (E)-4^6-fluoro-1^5-((4-methylpiperazin-1-yl)methyl)-1^2,1^3-dihydro-1^1H-2,6-diaza-1(2,1)-benzo[d]imidazola-4(1,3)-benzenacycloundecaphane-3,5-dione], the IC50 amounted to 6 nM.

Turning to `C[C@H]1CCCCNC(=O)c2cccc(c2)C(=O)NC2Nc3cccc(N4CCCC4=O)c3N21` (stereo partly drawn) [Example 113, (S,E)-11-methyl-1^7-(2-oxopyrrolidin-1-yl)-1^2,1^3-dihydro-1^1H-2,6-diaza-1(2,1)-benzo[d]imidazola-4(1,3)-benzenacycloundecaphane-3,5-dione], the IC50 was 5 nM.

Still in this assay, the particulars now being: 1 mM ATP, MBP substrate; read-out: TAK1 Mean IC50 (nM) @ 1 mM ATP.
Take `Cc1nnc(-c2cccc3c2N2/C(=N/C(=O)c4cccc(c4)C(=O)NCCCC[C@@H]2C)N3)n1C` [Example 96, (S,E)-1^7-(4,5-dimethyl-4H-1,2,4-triazol-3-yl)-11-methyl-1^2,1^3-dihydro-1^1H-2,6-diaza-1(2,1)-benzo[d]imidazola-4(1,3)-benzenacycloundecaphane-3,5-dione]: the IC50 came to 7 nM.

Consider `C[C@H]1CCCCNC(=O)c2cccc(c2)C(=O)/N=C2\Nc3cccc(C(=O)N4CC[C@@](C)(O)C4)c3N21` [Example 106, (S,E)-1^7-((R)-3-hydroxy-3-methylpyrrolidine-1-carbonyl)-11-methyl-1^2,1^3-dihydro-1^1H-2,6-diaza-1(2,1)-benzo[d]imidazola-4(1,3)-benzenacycloundecaphane-3,5-dione], for which the IC50 was 6 nM.

As to `C[C@H]1CCCCNC(=O)c2cccc(c2)C(=O)/N=C2\Nc3cccc(C(=O)N4CC(OC5CC5)C4)c3N21` [Example 107, (S,E)-1^7-(3-cyclopropoxyazetidine-1-carbonyl)-11-methyl-1^2,1^3-dihydro-1^1H-2,6-diaza-1(2,1)-benzo[d]imidazola-4(1,3)-benzenacycloundecaphane-3,5-dione], the IC50 stood at 4 nM.

For the compound `C[C@H]1CCCCNC(=O)c2cccc(c2)C(=O)/N=C2\Nc3cccc(C(=O)N4CC(OC(F)(F)F)C4)c3N21` [Example 110, (S,E)-11-methyl-1^7-(3-(trifluoromethoxy)azetidine-1-carbonyl)-1^2,1^3-dihydro-1^1H-2,6-diaza-1(2,1)-benzo[d]imidazola-4(1,3)-benzenacycloundecaphane-3,5-dione], the IC50 was found to be 26 nM.

`C[C@H]1CCCCNC(=O)c2cccc(c2)C(=O)/N=C2\Nc3cccc(C(=O)N4C[C@@H]5C[C@H]4CO5)c3N21` [Example 111, (S,E)-1^7-((1S,4S)-2-oxa-5-azabicyclo[2.2.1]heptane-5-carbonyl)-11-methyl-1^2,1^3-dihydro-1^1H-2,6-diaza-1(2,1)-benzo[d]imidazola-4(1,3)-benzenacycloundecaphane-3,5-dione]: the IC50 was determined as 24 nM.

As to `C[C@H]1CCCCNC(=O)c2cccc(c2)C(=O)/N=C2\Nc3cccc(C(=O)N4C[C@H]5C[C@@H]4CO5)c3N21` [Example 112, (S,E)-1^7-((1R,4R)-2-oxa-5-azabicyclo[2.2.1]heptane-5-carbonyl)-11-methyl-1^2,1^3-dihydro-1^1H-2,6-diaza-1(2,1)-benzo[d]imidazola-4(1,3)-benzenacycloundecaphane-3,5-dione], the IC50 was determined as 8 nM.

Regarding `C[C@H]1CCCCNC(=O)c2cccc(c2)C(=O)NC2Nc3cccc(N4CCCC4=O)c3N21` (stereo partly drawn) [Example 113, (S,E)-11-methyl-1^7-(2-oxopyrrolidin-1-yl)-1^2,1^3-dihydro-1^1H-2,6-diaza-1(2,1)-benzo[d]imidazola-4(1,3)-benzenacycloundecaphane-3,5-dione], the IC50 was 5 nM.

As for `C[C@H]1CCCCNC(=O)c2cccc(c2)C(=O)/N=C2\Nc3cccc(C(=O)N4CC5(COC5)C4)c3N21` [Example 114, (S,E)-11-methyl-1^7-(2-oxa-6-azaspiro[3.3]heptane-6-carbonyl)-1^2,1^3-dihydro-1^1H-2,6-diaza-1(2,1)-benzo[d]imidazola-4(1,3)-benzenacycloundecaphane-3,5-dione], the IC50 came out at 10 nM.

The IC50 is the concentration needed to halve the response being measured.
